Legend:
CDNR4 cells [1] = format: cell-based, murine
Description: Following the cessation of the calibrated stress conditions exposure, the SR assay raw data is collected in the form of positive and negative wells (or cell growth sites) and in the form of viable or dead cell clones. The next steps of the assay involve expanding viable clones and determining their phenotypes. When the phenotype of interest being investigated in the SR assay is cell survival, the clones can be sub-classified using the testing listed in Table 6. This testing is performed as follows. Clones are removed from the tissue culture vessels in which they were placed before the start of the calibrated stress conditions exposure (using methods appropriate for the cell type), and subdivided into 4 different aliquots. Each aliquot is re-plated in an appropriate tissue culture vessel in medium containing the following. For one aliquot, the medium is growth medium (conditioned medium may be used) only; for a second aliquot the medium is supplemented with guanosine or folic acid at a concentration sufficient to enhance the survival and expansion of HPRT^− clones; for a third aliquot, the medium contains the same level of agent as used for the calibrated stress condition exposure, and the fourth aliquot is placed in HAT-medium containing an amount of aminopterin that is sufficient to induce growth arrest and/or cell death in Phen-HPRT^− cells of the cell type of interest (see above). Cell morphology (where informative for cell behavior and/or gene expression) and cell growth are monitored over the next 2, to 4 days to determine the response of the cells to these differing conditions. Cell clones can be subjected to additional testing as desired to evaluate further endpoints of interest and/or can be cryopreserved for future evaluations.
To subgroup Phen-ah clones as Phen-alt-rev or Phen-alt-irr, a representative group of these clones is tested further by subjecting the clones to repeated rounds of exposure to the calibrated stress conditions. Other stress inducing agents also may be used. Each exposure cycle is followed by a period of time to allow the cells to recover, and thus, to resolve the stress environment. After each exposure round, the percentage of cells that are resistant to the stress inducing agent or condition is recorded. […] The parental cell response that has been used in the examples below is defined as greater than 99% sensitivity to the calibrated stress conditions agent or condition, as evidenced by cell cycle arrest and/or cell death following exposure to the SR induction agent. Other stress response endpoints may be used and will depend upon the nature of the stress inducing agent used; these endpoints are incorporated herein.
The murine mammary epithelial cells designated CDNR4 were grown in their preferred growth medium (42% DMEM, 42% Hams F-12, 12% FBS, 1% 100×L-glutamine, 1% pen-strep, 0.5% to 1% bovine pituitary extract) until approximately 6 million cells were available. Cells were removed from the expansion flasks, counted, and replated at a rate of 500,000 cells per […] flask in growth medium. The flasks were assigned randomly to one of two groups: a vehicle-alone exposure (control group); an ENU-exposure (treated) group. […] For group 1 flasks, a volume of growth medium equal to the volume of ENU was added to the flasks. The cells were exposed to this solution for 1 hour at 37° C.; at the end of this time the solution was removed, the cells were washed with PBS at 37° C., and the cells were re-fed with fresh growth medium.
At the end of 2 weeks, the cells were removed from the flasks with trypsin/EDTA and passed through a 20 to 25 micron pore size sterile Nytran filter. The cell suspension was evaluated by light microscopy for evidence of large clumps, and was re-filtered if necessary using a new sterile Nytran filter of the same size to remove any apparent large clumps of cells. […]

CDNR4 cells [2] = assay: Observation of cells during the adaptive response period after the initial exposure; format: cell-based, murine; conditions: ENU 20 micrograms/ml 1 hour; resolved after 10 to 12 days
Description: The murine mammary epithelial cells designated CDNR4 were grown in their preferred growth medium (42% DMEM, 42% Hams F-12, 12% FBS, 1% 100×L-glutamine, 1% pen-strep, 0.5% to 1% bovine pituitary extract) until approximately 6 million cells were available. Cells were removed from the expansion flasks, counted, and replated at a rate of 500,000 cells per […] flask in growth medium. The flasks were assigned randomly to one of two groups: a vehicle-alone exposure (control group); an ENU-exposure (treated) group. For flasks of ENU-exposed cells, ENT was added to the growth medium to achieve a final concentration of 20 micrograms per milliliter. For group 1 flasks, a volume of growth medium equal to the volume of ENU was added to the flasks. The cells were exposed to this solution for 1 hour at 37° C.; at the end of this time the solution was removed, the cells were washed with PBS at 37° C., and the cells were re-fed with fresh growth medium.
This drop in pH recurred within six to 12 hours after re-feeding the cells with fresh growth medium. To reduce this problem, all cells (vehicle-exposed and ENU-exposed) were re-fed every day with medium that was buffered with HEPES at a concentration of 25 millimolar. […] This process of increased cell death among ENU-exposed cells resolved after approximately 10 to 12 days. […]

[3] = ENU 2.0 micrograms/ml 1 hour (so in the source), 2-week expression period, 6-TG stress
[4] = ENU-exposed, average 6 out of 38 clones

**Q.** Which results are given for `CCN(N=O)C(N)=O` [ENU, ethylnitrosourea]?
**A.** CE / mutant frequency of Phen-HPRT^− clones (CDNR4 cells [1]; [3]): 160±40 ×10^−6; CE of Phen-alt-irr clones (CDNR4 cells [1]; [3]): 690±170 ×10^−6; CE of Phen-alt-rev clones (CDNR4 cells [1]; [3]): 180±130 ×10^−6; CE of Phen-parental clones (CDNR4 cells [1]; [3]): 95±20 ×10^−6; reduction in total pro-survival pathway function, ENU-exposed versus vehicle-exposed (CDNR4 cells [1]; ENU 20 micrograms/ml 1 hour): ~3 fold; fCEs for all surviving cell clones (total pro-survival pathway function) (CDNR4 cells [1]; ENU 20 micrograms/ml 1 hour, 6-TG 30 micrograms/ml 4 days, 600 cells per well): 1210±380 ×10^−6; surviving population with damage, Phen-alt-rev clones included (CDNR4 cells [1]; ENU-exposed): 92%; average CE for Phen-Hprt- and Phen-alt clones, Phen-alt-rev clones included (CDNR4 cells [1]; ENU-exposed cells): 1100±350 ×10^−6; combined average fCE of Phen-parental and Phen-alt-rev clones (CDNR4 cells [1]; ENU-exposed cells): 280±150 ×10^−6; average fCE for Phen-Hprt^− clones and Phen-alt clones together (damage tolerance pathway function) (CDNR4 cells [1]; ENU-exposed cells, without Phen-alt-rev clones): 870±220 ×10^−6; effect per unit dose of the calibrated stress conditions exposure upon CEs for Phen-parental clones (CDNR4 cells [1]; ENU-exposed cells, 95÷35 micrograms 6-TG): 2.7 CE/microgram 6-TG; post-calibrated stress condition fCEs (CDNR4 cells [1]; ENU-exposed cells, SRID-10% of 6-TG (Example 5)): 95 ×10^−6; surviving population with permanent genomic changes (CDNR4 cells [1]; ENU-exposed, Hprt mutations plus irreversible phenotypic alterations): 75%; Phen-parental clones as share of the final surviving treated cell population (CDNR4 cells [1]; ENU-exposed, average 3 out of 38 clones): 9%; surviving clones with evidence of DNA damage in the Hprt gene (CDNR4 cells [1]; [4]): 15%; surviving clones with reversible phenotypic alterations (CDNR4 cells [1]; [4]): 17%; surviving clones with irreversible phenotypic changes (Phen-alt-irr) (CDNR4 cells [1]; ENU-exposed, average 23 out of 38 clones): 60%; total survival frequency (CDNR4 cells [1]; ENU-treated cells, calibrated stress conditions at SRID-70% to 80%): approximately 128 ×10^−6; reduction in damage avoidance pathway function, Phen-parental clones only (CDNR4 cells [1]; treated versus control cells): approximately 25 fold; reduction in damage avoidance pathway function, Phen-parental and Phen-alt-rev together (CDNR4 cells [1]; versus Phen-parental fCE of control cells): 12 fold; cell death among ENU-exposed flasks during adaptive response period (CDNR4 cells [2]): slight non-significant increase in cell death
